Results on 3 compounds are retold here after ChEMBL document CHEMBL5325426, “Structure-based discovery of potent USP28 inhibitors derived from Vismodegib” (Eur J Med Chem, 2023).

As usually defined, the IC50 is the concentration needed to halve the response being measured.

Activity calls are given as the source filed them. The rule behind the calls is not given here.

Sequence of Ubiquitin carboxyl-terminal hydrolase 7 (Homo sapiens) (Q93009 whole entry, looked up, the tested form may be a part): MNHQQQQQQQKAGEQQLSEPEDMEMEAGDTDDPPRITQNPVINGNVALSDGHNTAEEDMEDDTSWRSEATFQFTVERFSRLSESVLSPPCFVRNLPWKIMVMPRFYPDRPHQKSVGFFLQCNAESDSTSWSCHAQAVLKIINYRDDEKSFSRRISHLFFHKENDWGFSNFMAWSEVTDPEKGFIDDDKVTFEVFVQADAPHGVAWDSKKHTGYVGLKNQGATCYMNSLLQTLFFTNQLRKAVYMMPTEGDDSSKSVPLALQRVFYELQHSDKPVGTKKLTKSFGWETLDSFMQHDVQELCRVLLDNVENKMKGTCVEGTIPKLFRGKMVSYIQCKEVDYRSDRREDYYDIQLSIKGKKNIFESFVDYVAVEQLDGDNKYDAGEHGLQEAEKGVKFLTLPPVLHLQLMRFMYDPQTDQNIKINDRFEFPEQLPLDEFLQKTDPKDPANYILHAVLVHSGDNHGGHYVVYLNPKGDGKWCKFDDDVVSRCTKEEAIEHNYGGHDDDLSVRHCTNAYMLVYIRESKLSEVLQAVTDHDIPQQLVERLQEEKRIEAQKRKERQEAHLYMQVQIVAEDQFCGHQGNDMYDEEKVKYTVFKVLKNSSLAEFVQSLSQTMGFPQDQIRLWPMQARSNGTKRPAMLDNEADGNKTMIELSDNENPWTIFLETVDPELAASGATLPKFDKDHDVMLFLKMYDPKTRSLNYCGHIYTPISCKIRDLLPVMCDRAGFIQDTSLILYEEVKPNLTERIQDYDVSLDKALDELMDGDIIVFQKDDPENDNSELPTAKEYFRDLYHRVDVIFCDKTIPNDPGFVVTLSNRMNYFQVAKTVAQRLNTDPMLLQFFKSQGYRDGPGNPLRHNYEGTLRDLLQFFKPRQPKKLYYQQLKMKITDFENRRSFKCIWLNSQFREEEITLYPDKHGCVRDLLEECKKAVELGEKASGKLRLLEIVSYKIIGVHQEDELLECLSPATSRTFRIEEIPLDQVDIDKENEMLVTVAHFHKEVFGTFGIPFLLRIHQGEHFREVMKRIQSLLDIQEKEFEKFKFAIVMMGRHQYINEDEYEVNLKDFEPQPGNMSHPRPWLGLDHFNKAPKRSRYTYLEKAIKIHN

The first assay deals with T1, Ubiquitin carboxyl-terminal hydrolase 28 (Homo sapiens, UniProt Q96RU2).
T1 sequence (Q96RU2 whole entry): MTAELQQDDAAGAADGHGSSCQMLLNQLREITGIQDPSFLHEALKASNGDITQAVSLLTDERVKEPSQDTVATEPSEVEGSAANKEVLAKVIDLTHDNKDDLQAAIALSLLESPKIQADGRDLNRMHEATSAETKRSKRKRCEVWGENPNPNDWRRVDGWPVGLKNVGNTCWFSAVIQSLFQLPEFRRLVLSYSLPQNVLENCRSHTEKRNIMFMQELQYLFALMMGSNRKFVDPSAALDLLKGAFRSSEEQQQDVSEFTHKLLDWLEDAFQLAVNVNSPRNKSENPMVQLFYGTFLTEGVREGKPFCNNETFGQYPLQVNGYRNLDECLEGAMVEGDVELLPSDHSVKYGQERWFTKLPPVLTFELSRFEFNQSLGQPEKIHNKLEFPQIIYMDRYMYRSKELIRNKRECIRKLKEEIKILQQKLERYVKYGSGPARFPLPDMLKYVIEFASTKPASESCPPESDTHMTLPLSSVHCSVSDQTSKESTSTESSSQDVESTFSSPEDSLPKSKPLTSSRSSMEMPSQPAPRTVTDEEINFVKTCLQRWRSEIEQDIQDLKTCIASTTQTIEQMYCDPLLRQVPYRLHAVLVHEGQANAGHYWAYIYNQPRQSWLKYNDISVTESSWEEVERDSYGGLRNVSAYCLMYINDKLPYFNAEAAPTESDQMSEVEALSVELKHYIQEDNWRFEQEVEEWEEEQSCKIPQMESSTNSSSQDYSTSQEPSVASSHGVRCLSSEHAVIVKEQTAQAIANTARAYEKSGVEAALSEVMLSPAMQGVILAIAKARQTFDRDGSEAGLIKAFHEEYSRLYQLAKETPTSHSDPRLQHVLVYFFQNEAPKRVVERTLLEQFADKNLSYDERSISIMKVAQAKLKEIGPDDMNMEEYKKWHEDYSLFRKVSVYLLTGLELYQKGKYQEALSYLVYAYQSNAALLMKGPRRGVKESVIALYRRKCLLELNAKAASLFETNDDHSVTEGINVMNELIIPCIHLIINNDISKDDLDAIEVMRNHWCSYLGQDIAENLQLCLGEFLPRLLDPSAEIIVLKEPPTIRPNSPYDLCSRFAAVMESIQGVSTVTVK
Put plainly: Inhibition of USP28 (149 to 703 residues) (unknown origin) expressed in Escherichia coli BL21 (DE3) using Ub-AMC as substrate by fluorescence based analysis.
Conditions: not given
The compound `CS(=O)(=O)c1ccc(C(=O)Nc2ccc(Cl)c(-c3ccc4c(c3)CNC4)c2)c(Cl)c1` yielded an IC50 of 0.04 µM.

Turning to `CS(=O)(=O)c1ccc(C(=O)Nc2ccc(Cl)c(-c3ccc4c(c3)CCNC4)c2)c(Cl)c1`, the IC50 is 0.1 µM.

`CS(=O)(=O)c1ccc(C(=O)Nc2ccc(Cl)c(-c3ccc(C4(N)CC4)cc3)c2)c(Cl)c1`: the IC50 came to 0.3 µM.

In a further assay the test system is HCT-116. Put plainly: Antiproliferative activity against human HCT-116 cells assessed as cell growth inhibition incubated for 3 days by SRB assay. To be noted: HCT-116, 72 h. In kind it is functional, cell-based. For orientation: The SRB assay estimates cell density from bound dye.
Take `CS(=O)(=O)c1ccc(C(=O)Nc2ccc(Cl)c(-c3ccc4c(c3)CNC4)c2)c(Cl)c1`: the half-inhibitory concentration (IC50) worked out at 38.1 µM.

For `CS(=O)(=O)c1ccc(C(=O)Nc2ccc(Cl)c(-c3ccc4c(c3)CCNC4)c2)c(Cl)c1`, the IC50 was found to be 24.2 µM.

For the compound `CS(=O)(=O)c1ccc(C(=O)Nc2ccc(Cl)c(-c3ccc(C4(N)CC4)cc3)c2)c(Cl)c1`, the 50% inhibitory concentration (IC50) came to 26 µM.

The next assay has as its target Ubiquitin carboxyl-terminal hydrolase 7 (Homo sapiens) (UniProt Q93009). Put plainly: Inhibition of USP7 (208 to 560 residues) (unknown origin) expressed in Escherichia coli BL21 (DE3) using Ub-AMC as substrate at 5 uM by fluorescence based analysis.
Conditions: not given
Turning to `CS(=O)(=O)c1ccc(C(=O)Nc2ccc(Cl)c(-c3ccc4c(c3)CNC4)c2)c(Cl)c1`, the inhibition entry is “Active”.

Take `CS(=O)(=O)c1ccc(C(=O)Nc2ccc(Cl)c(-c3ccc4c(c3)CCNC4)c2)c(Cl)c1`: the inhibition result is “Active”.

For the compound `CS(=O)(=O)c1ccc(C(=O)Nc2ccc(Cl)c(-c3ccc(C4(N)CC4)cc3)c2)c(Cl)c1`, the inhibition entry is “Active”.

Another assay concerns the target T2, Ubiquitin carboxyl-terminal hydrolase 25 (Homo sapiens) (UniProt Q9UHP3).
T2 sequence (whole entry): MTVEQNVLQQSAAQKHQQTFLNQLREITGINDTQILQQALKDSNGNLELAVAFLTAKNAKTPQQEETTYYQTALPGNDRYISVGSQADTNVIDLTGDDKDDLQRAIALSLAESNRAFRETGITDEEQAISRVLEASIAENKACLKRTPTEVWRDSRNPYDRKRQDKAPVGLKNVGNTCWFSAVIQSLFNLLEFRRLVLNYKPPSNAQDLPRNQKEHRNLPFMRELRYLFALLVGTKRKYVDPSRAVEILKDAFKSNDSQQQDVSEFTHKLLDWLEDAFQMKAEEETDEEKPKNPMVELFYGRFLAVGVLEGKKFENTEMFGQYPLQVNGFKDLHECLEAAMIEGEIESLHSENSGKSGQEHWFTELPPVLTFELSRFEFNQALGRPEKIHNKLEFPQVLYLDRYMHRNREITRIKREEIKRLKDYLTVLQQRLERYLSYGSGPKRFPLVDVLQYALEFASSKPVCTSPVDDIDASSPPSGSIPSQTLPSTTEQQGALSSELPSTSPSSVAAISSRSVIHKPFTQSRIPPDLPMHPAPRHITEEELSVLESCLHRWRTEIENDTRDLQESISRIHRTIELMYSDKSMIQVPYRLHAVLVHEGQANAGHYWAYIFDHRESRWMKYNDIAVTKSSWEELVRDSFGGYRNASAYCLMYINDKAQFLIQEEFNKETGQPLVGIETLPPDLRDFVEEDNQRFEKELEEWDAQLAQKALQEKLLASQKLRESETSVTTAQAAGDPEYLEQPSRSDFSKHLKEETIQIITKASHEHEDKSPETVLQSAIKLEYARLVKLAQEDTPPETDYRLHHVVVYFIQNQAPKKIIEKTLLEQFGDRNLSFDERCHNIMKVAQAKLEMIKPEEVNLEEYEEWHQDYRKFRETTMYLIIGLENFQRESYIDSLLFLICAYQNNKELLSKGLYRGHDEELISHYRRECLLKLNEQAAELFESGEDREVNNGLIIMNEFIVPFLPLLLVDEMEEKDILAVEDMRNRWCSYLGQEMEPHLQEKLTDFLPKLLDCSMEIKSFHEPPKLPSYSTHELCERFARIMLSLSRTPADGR
Put plainly: Inhibition of USP25 in human HCT-116 cells assessed as downregulation of Tankyrase 1/2 protein level. In kind it is cell-based.
Conditions: not given
In the case of `CS(=O)(=O)c1ccc(C(=O)Nc2ccc(Cl)c(-c3ccc4c(c3)CNC4)c2)c(Cl)c1`, the inhibition entry was “Active”.

Regarding `CS(=O)(=O)c1ccc(C(=O)Nc2ccc(Cl)c(-c3ccc4c(c3)CCNC4)c2)c(Cl)c1`, the inhibition result was “Active”.

`CS(=O)(=O)c1ccc(C(=O)Nc2ccc(Cl)c(-c3ccc(C4(N)CC4)cc3)c2)c(Cl)c1`: the inhibition result was “Active”.

A further assay concerns LS174T. Put plainly: Antiproliferative activity against human LS174T cells assessed as cell growth inhibition incubated for 3 days by SRB assay. The assay is classed as functional, cell-based. To be noted: 72 h.
Regarding `CS(=O)(=O)c1ccc(C(=O)Nc2ccc(Cl)c(-c3ccc4c(c3)CNC4)c2)c(Cl)c1`, the IC50 was 24.3 µM.

As to `CS(=O)(=O)c1ccc(C(=O)Nc2ccc(Cl)c(-c3ccc4c(c3)CCNC4)c2)c(Cl)c1`, the IC50 came to 19.9 µM.

On to `CS(=O)(=O)c1ccc(C(=O)Nc2ccc(Cl)c(-c3ccc(C4(N)CC4)cc3)c2)c(Cl)c1`, for which the IC50 was determined as 21.9 µM.

The target in a further assay is T3, Ubiquitin carboxyl-terminal hydrolase isozyme L3 (Homo sapiens) (UniProt P15374).
T3 sequence (whole entry): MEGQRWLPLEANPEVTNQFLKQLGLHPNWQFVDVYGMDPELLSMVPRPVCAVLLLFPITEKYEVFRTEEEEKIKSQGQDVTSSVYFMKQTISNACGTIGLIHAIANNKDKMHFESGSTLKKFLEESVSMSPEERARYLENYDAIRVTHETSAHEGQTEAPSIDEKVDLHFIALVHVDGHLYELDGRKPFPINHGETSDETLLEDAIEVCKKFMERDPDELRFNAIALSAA
The assay is described as follows: Inhibition of UCHL3 (unknown origin) expressed in Escherichia coli BL21 (DE3) using Ub-AMC as substrate at 5 uM by fluorescence based analysis.
Conditions: not given
As for `CS(=O)(=O)c1ccc(C(=O)Nc2ccc(Cl)c(-c3ccc4c(c3)CNC4)c2)c(Cl)c1`, the inhibition entry was “Active”.

With `CS(=O)(=O)c1ccc(C(=O)Nc2ccc(Cl)c(-c3ccc4c(c3)CCNC4)c2)c(Cl)c1`, the inhibition entry is “Active”.

Turning to `CS(=O)(=O)c1ccc(C(=O)Nc2ccc(Cl)c(-c3ccc(C4(N)CC4)cc3)c2)c(Cl)c1`, the inhibition result is “Active”.

For another assay, the target named is Ubiquitin carboxyl-terminal hydrolase 9X (Homo sapiens) (UniProt Q93008). Put plainly: Inhibition of USP9X (1151 to 1970 residues) (unknown origin) expressed in Escherichia coli BL21 (DE3) using Ub-AMC as substrate at 5 uM by fluorescence based analysis.
Sequence of Ubiquitin carboxyl-terminal hydrolase 9X (Homo sapiens) (Q93008 whole entry, the tested form may be a part): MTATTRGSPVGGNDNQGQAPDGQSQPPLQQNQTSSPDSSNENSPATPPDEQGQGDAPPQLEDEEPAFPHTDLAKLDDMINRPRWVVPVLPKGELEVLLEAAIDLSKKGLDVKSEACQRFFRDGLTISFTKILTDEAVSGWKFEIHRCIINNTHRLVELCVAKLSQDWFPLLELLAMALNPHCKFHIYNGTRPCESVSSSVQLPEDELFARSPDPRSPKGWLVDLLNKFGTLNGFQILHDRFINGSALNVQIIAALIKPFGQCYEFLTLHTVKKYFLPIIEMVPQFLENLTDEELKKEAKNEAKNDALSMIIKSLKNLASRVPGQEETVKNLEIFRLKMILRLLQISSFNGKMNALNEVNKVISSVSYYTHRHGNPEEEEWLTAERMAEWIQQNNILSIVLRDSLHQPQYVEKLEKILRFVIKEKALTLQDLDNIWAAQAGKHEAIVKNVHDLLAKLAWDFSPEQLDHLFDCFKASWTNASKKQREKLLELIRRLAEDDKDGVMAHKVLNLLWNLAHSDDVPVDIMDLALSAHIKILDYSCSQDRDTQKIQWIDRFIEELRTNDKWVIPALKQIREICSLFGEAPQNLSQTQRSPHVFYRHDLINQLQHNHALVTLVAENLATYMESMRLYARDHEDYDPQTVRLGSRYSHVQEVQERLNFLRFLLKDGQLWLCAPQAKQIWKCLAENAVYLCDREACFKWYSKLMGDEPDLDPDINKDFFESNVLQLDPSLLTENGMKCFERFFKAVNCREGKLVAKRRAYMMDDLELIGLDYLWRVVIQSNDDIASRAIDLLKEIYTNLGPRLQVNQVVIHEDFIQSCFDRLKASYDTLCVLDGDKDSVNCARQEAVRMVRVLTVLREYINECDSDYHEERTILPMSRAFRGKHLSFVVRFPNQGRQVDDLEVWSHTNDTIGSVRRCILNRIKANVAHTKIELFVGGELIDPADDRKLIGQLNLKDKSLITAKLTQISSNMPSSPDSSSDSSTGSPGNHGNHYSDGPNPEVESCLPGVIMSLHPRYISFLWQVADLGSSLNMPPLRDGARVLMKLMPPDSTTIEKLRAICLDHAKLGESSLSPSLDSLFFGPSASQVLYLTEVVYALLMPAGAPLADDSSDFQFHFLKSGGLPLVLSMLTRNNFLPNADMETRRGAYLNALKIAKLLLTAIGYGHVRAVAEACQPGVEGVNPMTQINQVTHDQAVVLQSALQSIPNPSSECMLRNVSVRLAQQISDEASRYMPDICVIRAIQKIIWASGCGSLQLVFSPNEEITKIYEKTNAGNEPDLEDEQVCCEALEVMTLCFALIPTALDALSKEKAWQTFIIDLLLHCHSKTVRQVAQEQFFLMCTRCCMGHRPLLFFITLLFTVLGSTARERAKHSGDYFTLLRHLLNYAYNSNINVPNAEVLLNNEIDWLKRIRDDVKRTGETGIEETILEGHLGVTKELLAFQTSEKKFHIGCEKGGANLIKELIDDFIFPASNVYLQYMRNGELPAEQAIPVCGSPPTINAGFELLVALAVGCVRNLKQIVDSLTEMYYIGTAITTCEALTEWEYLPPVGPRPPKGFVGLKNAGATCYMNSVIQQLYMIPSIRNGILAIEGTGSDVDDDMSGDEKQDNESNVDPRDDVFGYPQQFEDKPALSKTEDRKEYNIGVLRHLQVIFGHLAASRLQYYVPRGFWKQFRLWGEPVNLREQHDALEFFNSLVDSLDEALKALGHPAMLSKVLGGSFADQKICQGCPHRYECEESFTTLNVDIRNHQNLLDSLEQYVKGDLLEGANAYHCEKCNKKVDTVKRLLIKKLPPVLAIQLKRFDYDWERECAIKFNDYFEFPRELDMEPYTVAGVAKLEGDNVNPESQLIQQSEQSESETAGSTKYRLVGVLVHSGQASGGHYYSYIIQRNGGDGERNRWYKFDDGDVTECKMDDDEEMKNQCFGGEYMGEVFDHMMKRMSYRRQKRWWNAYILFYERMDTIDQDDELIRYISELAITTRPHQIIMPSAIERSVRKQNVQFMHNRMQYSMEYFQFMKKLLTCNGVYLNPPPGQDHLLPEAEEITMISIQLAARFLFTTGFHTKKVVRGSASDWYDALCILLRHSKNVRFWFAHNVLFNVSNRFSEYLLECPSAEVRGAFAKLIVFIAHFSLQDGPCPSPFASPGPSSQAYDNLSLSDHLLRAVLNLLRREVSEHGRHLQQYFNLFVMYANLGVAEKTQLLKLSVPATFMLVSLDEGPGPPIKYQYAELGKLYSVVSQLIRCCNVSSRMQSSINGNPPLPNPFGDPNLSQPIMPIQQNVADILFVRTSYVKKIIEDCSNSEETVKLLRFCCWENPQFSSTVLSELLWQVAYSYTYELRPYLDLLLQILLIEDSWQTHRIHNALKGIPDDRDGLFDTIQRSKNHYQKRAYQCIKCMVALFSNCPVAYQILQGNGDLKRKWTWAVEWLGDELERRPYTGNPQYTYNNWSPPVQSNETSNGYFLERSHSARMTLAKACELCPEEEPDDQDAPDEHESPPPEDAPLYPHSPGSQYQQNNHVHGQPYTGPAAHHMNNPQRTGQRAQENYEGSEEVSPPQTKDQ
Conditions: not given
Take `CS(=O)(=O)c1ccc(C(=O)Nc2ccc(Cl)c(-c3ccc4c(c3)CNC4)c2)c(Cl)c1`: the inhibition result is “Active”.

Regarding `CS(=O)(=O)c1ccc(C(=O)Nc2ccc(Cl)c(-c3ccc4c(c3)CCNC4)c2)c(Cl)c1`, the inhibition result was “Active”.

As for `CS(=O)(=O)c1ccc(C(=O)Nc2ccc(Cl)c(-c3ccc(C4(N)CC4)cc3)c2)c(Cl)c1`, the inhibition result is “Active”.

The next assay relates to LS174T. Put plainly: Antiproliferative activity against human LS174T cells assessed as cell growth inhibition at 10 to 30 uM incubated for 3 days in presence of Regorafenib by SRB assay. In kind it is functional, cell-based. The note with it: dose 10-30 µM, time 3.0 day.
`CS(=O)(=O)c1ccc(C(=O)Nc2ccc(Cl)c(-c3ccc4c(c3)CNC4)c2)c(Cl)c1`: the outcome was Active.

Regarding `CS(=O)(=O)c1ccc(C(=O)Nc2ccc(Cl)c(-c3ccc4c(c3)CCNC4)c2)c(Cl)c1`, the result was Active.

For the compound `CS(=O)(=O)c1ccc(C(=O)Nc2ccc(Cl)c(-c3ccc(C4(N)CC4)cc3)c2)c(Cl)c1`, the result was Active.
